Laboratory results: patent US5179088A, “1-Carba(dethia)cephalosporin antibiotics” (Eli Lilly and Company, priority 1990, dated 1993)

Tests used:
Type in all cases: cell-based
Set-up in all cases: unit not given here
Citro = assay: in vitro antibacterial activity, agar dilution (Citro)
Protocol: (§1) *minimum inhibitory concentrations were determined by the Agardilution

Staphylococcus Epi = assay: in vitro antibacterial activity, agar dilution (Staphylococcus epi)
Protocol: as §1

Enterbacter Aerogenes = assay: in vitro antibacterial activity, agar dilution (Enterobacter aerogenes)
Protocol: as §1

Enterbacter Cloacea = assay: in vitro antibacterial activity, agar dilution (Enterobacter cloacae)
Protocol: as §1

Pseudomonas = assay: in vitro antibacterial activity, agar dilution (Pseudomonas)
Protocol: as §1

Salmonella = assay: in vitro antibacterial activity, agar dilution (Salmonella)
Protocol: as §1

Streptococcus D = assay: in vitro antibacterial activity, agar dilution (Streptococcus D)
Protocol: as §1

Proteus incon = assay: in vitro antibacterial activity, agar dilution (Proteus incon)
Protocol: as §1

Serratia = assay: in vitro antibacterial activity, agar dilution (Serratia)
Protocol: as §1

Shig. sonn = assay: in vitro antibacterial activity, agar dilution (Shig. sonn)
Protocol: as §1

E. coli = assay: in vitro antibacterial activity, agar dilution (E. coli)
Protocol: as §1

Streptococcus A = assay: in vitro antibacterial activity, agar dilution (Streptococcus A)
Protocol: as §1

Proteus rett = assay: in vitro antibacterial activity, agar dilution (Proteus rett)
Protocol: as §1

Acin = assay: in vitro antibacterial activity, agar dilution (Acin)
Protocol: as §1

Klebsiella = assay: in vitro antibacterial activity, agar dilution (Klebsiella)
Protocol: as §1

Streptococcus pn = assay: in vitro antibacterial activity, agar dilution (Streptococcus pn); details: strain PARK
Protocol: as §1

H. Influ. = assay: in vitro antibacterial activity, agar dilution (H. influ.)
Protocol: as §1

Staphylococcus Aureus = assay: in vitro antibacterial activity, agar dilution (Staphylococcus aureus)
Protocol: as §1

Proteus morg = assay: in vitro antibacterial activity, agar dilution (Proteus morg)
Protocol: as §1

`CO/N=C(\C(=O)N[C@@H]1C(=O)N2C(C(=O)O)=C(c3csc(-c4ccccc4)n3)CC[C@H]12)c1csc(N)n1` [Example 31, Sodium 7β-[(2-aminothiazol-4-yl)-Z-methoximinoacetylamino]-1-carba-(1-dethia)-3-[2-(2-phenyl)thiazol-4-yl]-3-cephem-4-carboxylate] showed a minimum inhibitory concentration (Citro; strain CF17) of 4, a minimum inhibitory concentration (Staphylococcus Epi; strain 222) of 2 and a minimum inhibitory concentration (Staphylococcus Epi; strain 270) of 8. The minimum inhibitory concentration (Enterbacter Aerogenes; strain C32) was 1, the minimum inhibitory concentration (Enterbacter Aerogenes; strain EB17) was 1 and the minimum inhibitory concentration (Enterbacter Cloacea; strain 265A) was 64. For the same compound, the minimum inhibitory concentration (Enterbacter Cloacea; strain EB5) was 1, the minimum inhibitory concentration (Pseudomonas; strain PS18) was > 128 and the minimum inhibitory concentration (Pseudomonas; strain PS72) was > 128. The minimum inhibitory concentration (Pseudomonas; strain X239) was > 128, the minimum inhibitory concentration (Pseudomonas; strain X528) was > 128 and the minimum inhibitory concentration (Salmonella; strain 1335) was 4. For the same compound, the minimum inhibitory concentration (Salmonella; strain X514) was 2, the minimum inhibitory concentration (Streptococcus D; strain 2041) was 4 and the minimum inhibitory concentration (Streptococcus D; strain X66) was > 128. The minimum inhibitory concentration (Proteus incon; strain PR33) was “.5”, the minimum inhibitory concentration (Serratia; strain SE3) was 8 and the minimum inhibitory concentration (Serratia; strain X99) was 4. For the same compound, the minimum inhibitory concentration (Shig. sonn; strain N9) was 1, the minimum inhibitory concentration (E. coli; strain EC14) was 1 and the minimum inhibitory concentration (E. coli; strain N10) was 2. For the same compound, the minimum inhibitory concentration (E. coli; strain TEM) was 1, the minimum inhibitory concentration (Streptococcus A; strain C203) was “< .008” and the minimum inhibitory concentration (Proteus rett; strain C24) was “.25”. The minimum inhibitory concentration (Acin; strain AC12) was 128, the minimum inhibitory concentration (Klebsiella; strain KAE) was 1 and the minimum inhibitory concentration (Klebsiella; strain X26) was “.015”. The minimum inhibitory concentration (Klebsiella; strain X68) was 1, the minimum inhibitory concentration (Streptococcus pn) was “< .008” and the minimum inhibitory concentration (H. Influ.; res, strain 76) was “.03”. For the same compound, the minimum inhibitory concentration (H. Influ.; sens, strain C.L.) was “.06”, the minimum inhibitory concentration (Staphylococcus Aureus; strain S13E) was 128 and the minimum inhibitory concentration (Staphylococcus Aureus; strain V41) was 2. The minimum inhibitory concentration (Staphylococcus Aureus; strain X1.1) was 1, the minimum inhibitory concentration (Staphylococcus Aureus; strain X400) was > 128 and the minimum inhibitory concentration (Proteus morg; strain PR15) was 2.

With `CO/N=C(\C(=O)N[C@@H]1C(=O)N2C(C(=O)O)=C(c3csc(-c4ccco4)n3)CC[C@H]12)c1csc(N)n1` [Example 32] the minimum inhibitory concentration (Citro; strain CF17) was “.5”, the minimum inhibitory concentration (Citro; strain CF17, retest) was 1 and the minimum inhibitory concentration (Staphylococcus Epi; strain 222) was 4. It also gave a minimum inhibitory concentration (Staphylococcus Epi; strain 222, retest) of 4, a minimum inhibitory concentration (Staphylococcus Epi; strain 270) of 16 and a minimum inhibitory concentration (Staphylococcus Epi; strain 270, retest) of 8. The minimum inhibitory concentration (Enterbacter Aerogenes; strain C32) was 1, the minimum inhibitory concentration (Enterbacter Aerogenes; strain C32, retest) was “.5” and the minimum inhibitory concentration (Enterbacter Aerogenes; strain EB17) was 1. For the same compound, the minimum inhibitory concentration (Enterbacter Aerogenes; strain EB17, retest) was 1, the minimum inhibitory concentration (Enterbacter Cloacea; strain 265A) was 128 and the minimum inhibitory concentration (Enterbacter Cloacea; strain 265A, retest) was 128. For the same compound, the minimum inhibitory concentration (Enterbacter Cloacea; strain EB5) was 2, the minimum inhibitory concentration (Enterbacter Cloacea; strain EB5, retest) was 2 and the minimum inhibitory concentration (Pseudomonas; strain PS18) was > 128. For the same compound, the minimum inhibitory concentration (Pseudomonas; strain PS18, retest) was > 128, the minimum inhibitory concentration (Pseudomonas; strain PS72) was > 128 and the minimum inhibitory concentration (Pseudomonas; strain PS72, retest) was > 128. The minimum inhibitory concentration (Pseudomonas; strain X239) was > 128, the minimum inhibitory concentration (Pseudomonas; strain X239, retest) was > 128 and the minimum inhibitory concentration (Pseudomonas; strain X528) was > 128. For the same compound, the minimum inhibitory concentration (Pseudomonas; strain X528, retest) was > 128, the minimum inhibitory concentration (Salmonella; strain 1335) was 4 and the minimum inhibitory concentration (Salmonella; strain 1335, retest) was 2. The minimum inhibitory concentration (Salmonella; strain X514) was 1, the minimum inhibitory concentration (Salmonella; strain X514, retest) was 1 and the minimum inhibitory concentration (Streptococcus D; strain 2041) was 16. The minimum inhibitory concentration (Streptococcus D; strain 2041, retest) was 16, the minimum inhibitory concentration (Streptococcus D; strain X66) was > 128 and the minimum inhibitory concentration (Streptococcus D; strain X66, retest) was > 128. The minimum inhibitory concentration (Proteus incon; strain PR33) was “.5”, the minimum inhibitory concentration (Proteus incon; strain PR33, retest) was “.25” and the minimum inhibitory concentration (Serratia; strain SE3) was 16. For the same compound, the minimum inhibitory concentration (Serratia; strain SE3, retest) was 16, the minimum inhibitory concentration (Serratia; strain X99) was 14 and the minimum inhibitory concentration (Serratia; strain X99, retest) was 2. It also gave a minimum inhibitory concentration (Shig. sonn; strain N9) of 1, a minimum inhibitory concentration (Shig. sonn; strain N9, retest) of 1 and a minimum inhibitory concentration (E. coli; strain EC14) of 1. The minimum inhibitory concentration (E. coli; strain EC14, retest) was “.5”, the minimum inhibitory concentration (E. coli; strain N10) was 1 and the minimum inhibitory concentration (E. coli; strain N10, retest) was 1. The minimum inhibitory concentration (E. coli; strain TEM) was “< .008”, the minimum inhibitory concentration (E. coli; strain TEM, retest) was “.5” and the minimum inhibitory concentration (Streptococcus A; strain C203) was “.015”. For the same compound, the minimum inhibitory concentration (Streptococcus A; strain C203, retest) was “.015”, the minimum inhibitory concentration (Proteus rett; strain C24) was “.5” and the minimum inhibitory concentration (Proteus rett; strain C24, retest) was “.5”. For the same compound, the minimum inhibitory concentration (Acin; strain AC12) was 128, the minimum inhibitory concentration (Acin; strain AC12, retest) was 128 and the minimum inhibitory concentration (Klebsiella; strain KAE) was 1. For the same compound, the minimum inhibitory concentration (Klebsiella; strain KAE, retest) was 16, the minimum inhibitory concentration (Klebsiella; strain X26) was 8 and the minimum inhibitory concentration (Klebsiella; strain X26, retest) was “< .008”. For the same compound, the minimum inhibitory concentration (Klebsiella; strain X68) was 1, the minimum inhibitory concentration (Klebsiella; strain X68, retest) was 1 and the minimum inhibitory concentration (Streptococcus pn) was “.03”. The minimum inhibitory concentration (Streptococcus pn; retest) was “.03”, the minimum inhibitory concentration (H. Influ.; res, strain 76) was “< .008” and the minimum inhibitory concentration (H. Influ.; res, strain 76, retest) was “.015”. For the same compound, the minimum inhibitory concentration (H. Influ.; sens, strain C.L.) was “.06”, the minimum inhibitory concentration (H. Influ.; sens, strain C.L., retest) was “.03” and the minimum inhibitory concentration (Staphylococcus Aureus; strain S13E) was 128. For the same compound, the minimum inhibitory concentration (Staphylococcus Aureus; strain S13E, retest) was 128, the minimum inhibitory concentration (Staphylococcus Aureus; strain V41) was 8 and the minimum inhibitory concentration (Staphylococcus Aureus; strain V41, retest) was 4. The minimum inhibitory concentration (Staphylococcus Aureus; strain X1.1) was 4, the minimum inhibitory concentration (Staphylococcus Aureus; strain X1.1, retest) was 2 and the minimum inhibitory concentration (Staphylococcus Aureus; strain X400) was > 128. For the same compound, the minimum inhibitory concentration (Staphylococcus Aureus; strain X400, retest) was > 128, the minimum inhibitory concentration (Proteus morg; strain PR15) was 2 and the minimum inhibitory concentration (Proteus morg; strain PR15, retest) was 2.
